“Also recorded” adds a separate entry of the source.
Tests used:
Type in all cases: cell-based, human
[1] = tested on: plasmacytoid dendritic cells (pDC); assay: IFNα and TNFα in pDC of PBMC stimulated with CpG-ODN (intracellular staining); details: CpG-ODN, vs vehicle; for IFNα production by pDC: 0.01, 0.1, and 1.0 μM
Description: (§1) In immunological activity experiments, PBMC suspensions were pre-treated with cannabinoid and/or terpene compounds for 30 minutes before treatment with designated stimuli, cultured in 96 well tissue culture plates, and incubated at 37° C. and 5.0% CO2. In pDC experiments, cell suspensions were stimulated with CpG-ODN Type A 2216 (15 μg/mL) (InvivoGen©, San Diego, Calif.) following treatment with cannabinoids. Golgi transport inhibitors Monensin (2 μM)/Brefeldin A (3.0 μg/mL) (Thermo Fisher Scientific, Waltham, Mass.) were added to culture 3 hours post-stimulation, and after 7 hours of stimulation cells were harvested for evaluation by flow cytometry for IFNα and TNFα. In monocyte experiments, cell suspensions were stimulated with 1000 ng/mL LPS (S. typhosa, Sigma Aldrich, St. Louis, Mo.) for 18 hours before harvesting supernatants for IL-1β, Golgi blocked for 6 hours before harvesting cells for assessment of IL-6, or cultured for 48 hours before harvesting cells for assessment of HLA-DR, CD80, and CD86. In phagocytosis experiments, cell suspensions were treated with 3.0 mg/mL of pHrodo Green BioParticles (Thermo Fisher). In T cell experiments, cells were plated on 96 well tissue culture plates pre-coated with 5.0 μg/mL anti-CD3 (clone UCHT1, Biolegend, San Diego, Calif.) and stimulated with 5.0 μg/mL anti-CD28 (clone 28.2, Biolegend) and supplemented with 5.0 ng/mL IL-2 (Roche Applied Science, Indianapolis, Ind.). CD25 and CD69 were assessed by flow cytometry 24 hours post-stimulation. In proliferation experiments, cell suspensions were incubated with CFSE Cell Division Tracker (Biolegend) according to manufacturer protocols, harvested 4 days post-stimulation and assessed by flow cytometry. Cell suspensions were further stimulated with 50 ng/mL phorbol 12-myristate 13-acetate (PMA) and 1000 ng/mL ionomycin (Io) at 4 days post-stimulation for 18 hours, Golgi blocked for 6 hours, and harvested for IL-4 and IFNγ assessment by flow cytometry.
In brief, pDC, monocyte and T cell were identified using antibodies directed against unique epitopes for each cell type and analyzed by flow cytometry. Cells were fixed in BD CytoFix and resuspended in FACS buffer for extracellular staining. To determine the changes in cell viability in mixed PBMC, gates were first set on singlet events, then CD45+ cells, then populations identified by CD3+ (T cells) and CD14+ (monocytes), and then 7-AAD- for viability. Likewise, for pDC viability experiments, pDC were identified as CD303+ and viable by exclusion of Near IR L/D stain (Life Technologies, Carlsbad, Calif.). For intracellular staining, fixed cells were permeabilized in BD Permwash and incubated with appropriate antibodies and 7% human AB serum. pDC were identified as CD303+and assessed for intracellular IFNα and TNFα. Monocytes were identified as CD14+ and assessed for extracellular HLA-DR, CD80, CD86, and intracellular TNFα and IL-6. In phagocytosis experiments, PBMC were identified as CD45+ and monocytes were identified based on side scatter and then phagocytosing monocytes. T cells were identified as CD3+ and T cell subsets identified by CD4+ and CD8+ and assessed for extracellular CD25 and CD69 and intracellular IFNγ and IL-4. To analyze T cell proliferation, FlowJo 10.0 proliferation tool was used by setting the undivided peak of CFSE stained cells in each sample.

CD4+ T cells [2] = assay: Intracellular IFNγ and IL-4 after anti-CD3/anti-CD28 stimulation and PMA/ionomycin; details: vs vehicle
Description: as §1
(§2) In brief, pDC, monocyte and T cell were identified using antibodies directed against unique epitopes for each cell type and analyzed by flow cytometry. Cells were fixed in BD CytoFix and resuspended in FACS buffer for extracellular staining. […] For intracellular staining, fixed cells were permeabilized in BD Permwash and incubated with appropriate antibodies and 7% human AB serum. pDC were identified as CD303+and assessed for intracellular IFNα and TNFα. Monocytes were identified as CD14+ and assessed for extracellular HLA-DR, CD80, CD86, and intracellular TNFα and IL-6. […] T cells were identified as CD3+ and T cell subsets identified by CD4+ and CD8+ and assessed for extracellular CD25 and CD69 and intracellular IFNγ and IL-4. […]

CD8+ T cells = assay: Intracellular IFNγ after anti-CD3/anti-CD28 stimulation and PMA/ionomycin; details: vs vehicle
Description: as §1, §2

monocytes [3] = assay: Phagocytosis of pHrodo Green BioParticles by monocytes; details: 10 μM; pHrodo Green BioParticles 3.0 mg/mL; vs vehicle
Description: as §1, with “In T cell experiments, cells were plated on 96 well tissue culture plates pre-coated with 5.0 μg/mL anti-CD3 (clone UCHT1, Biolegend, San Diego, Calif.) and stimulated with 5.0 μg/mL anti-CD28 (clone 28.2, Biolegend) and supplemented with 5.0 ng/mL IL-2 (Roche Applied Science, Indianapolis, Ind.).” left out, “Cell suspensions were further stimulated with 50 ng/mL phorbol 12-myristate 13-acetate (PMA) and 1000 ng/mL ionomycin (Io) at 4 days post-stimulation for 18 hours, Golgi blocked for 6 hours, and harvested for IL-4 and IFNγ assessment by flow cytometry.” left out
as §2, with “cytometry.” for “cytometry. Cells were fixed in BD CytoFix and resuspended in FACS buffer for extracellular staining.”

monocytes [4] = assay: TNFα+ monocytes after CpG-ODN stimulation (intracellular staining); details: 10 μM; CpG-ODN 15 μg/mL, 6 hours; vs vehicle
Description: FIGS. 9A-9B reveal the TNFα decreasing potential of cannabinol (CBN). […] PBMC were isolated from human peripheral blood and pre-treated with the indicated concentrations of cannabinol for 30 minutes, followed by stimulation with 15 μg/mL CpG-ODN for 6 hours (FIG. 9A). Cells were non-enzymatically released from culture plates and assessed for the percentage of TNFα+ monocytes (FIG. 9A) by intracellular staining. For FIG. 9B, PBMC were isolated from human peripheral blood and pre-treated with the indicated concentrations of cannabinol for 30 minutes, followed by treatment with 3.0 mg/mL of pHrodo Green BioParticles (FIG. 9B). In FIG. 9B, cells were treated with 3.0 mg/mL of pHrodo Green BioParticles and assessed for phagocytosis monocytes by flow cytometry within 2 hours. Data are normalized to each donor's vehicle control when appropriate and presented as mean±SEM. N=4-6 donors per treatment group. […] *p<0.05 when compared to VH (FIG. 9A), or **p<0.01 when compared to VH (FIG. 9B), by repeated measure one-way ANOVA with Dunnett's posttest.
as §2

PBMC = assay: Immune modulation survey of single compounds (all functional responses); details: 0.001-10 μM
Description: In immunological activity experiments, PBMC suspensions were pre-treated with cannabinoid and/or terpene compounds for 30 minutes before treatment with designated stimuli, cultured in 96 well tissue culture plates, and incubated at 37° C. and 5.0% CO2. In pDC experiments, cell suspensions were stimulated with CpG-ODN Type A 2216 (15 μg/mL) (InvivoGen©, San Diego, Calif.) following treatment with cannabinoids. Golgi transport inhibitors Monensin (2 μM)/Brefeldin A (3.0 μg/mL) (Thermo Fisher Scientific, Waltham, Mass.) were added to culture 3 hours post-stimulation, and after 7 hours of stimulation cells were harvested for evaluation by flow cytometry for IFNα and TNFα. […] CD25 and CD69 were assessed by flow cytometry 24 hours post-stimulation. In proliferation experiments, cell suspensions were incubated with CFSE Cell Division Tracker (Biolegend) according to manufacturer protocols, harvested 4 days post-stimulation and assessed by flow cytometry. […]
In brief, pDC, monocyte and T cell were identified using antibodies directed against unique epitopes for each cell type and analyzed by flow cytometry. […] For intracellular staining, fixed cells were permeabilized in BD Permwash and incubated with appropriate antibodies and 7% human AB serum. pDC were identified as CD303+and assessed for intracellular IFNα and TNFα. […]

monocytes [5] = assay: IL-1β ELISA in supernatants of LPS-stimulated PBMC; details: for IL-1β in monocytes: 0.01 μM
Description: as §1
To quantify IL-1β produced by monocytes, supernatants were collected from LPS stimulated cell suspensions after 18 hours and frozen at −80° C. ELISA MAX from Biolegend was used as per manufacturer protocol to quantify IL-1β to a sensitivity of […].

CD4+ T cells [6] = assay: T cell activation markers CD25 and CD69, 24 hours post-stimulation; details: concentration not given
Description: as §1, with “In T cell experiments, cells were plated on 96 well tissue culture plates pre-coated with 5.0 μg/mL anti-CD3 (clone UCHT1, Biolegend, San Diego, Calif.) and stimulated with 5.0 μg/mL anti-CD28 (clone 28.2, Biolegend) and supplemented with 5.0 ng/mL IL-2 (Roche Applied Science, Indianapolis, Ind.).” left out, “Cell suspensions were further stimulated with 50 ng/mL phorbol 12-myristate 13-acetate (PMA) and 1000 ng/mL ionomycin (Io) at 4 days post-stimulation for 18 hours, Golgi blocked for 6 hours, and harvested for IL-4 and IFNγ assessment by flow cytometry.” left out
as §2, with “cytometry.” for “cytometry. Cells were fixed in BD CytoFix and resuspended in FACS buffer for extracellular staining.”

## CC1=CCC2CC1C2(C)C (stereo not drawn) [α-Pinene, α-pinene]
[1]
  IFNα production by pDC: significantly suppressed
[1]; listed as Alpha-Pinene
  IFNα production by pDC: significantly decreased
[1]; 0.1 and 1.0 μM
  TNFα production by pDC: significantly suppressed

## CCCCCc1cc(O)c2c(c1)OC(C)(C)c1ccc(C)cc1-2 [CBN, cannabinol]
CD4+ T cells [2]; 0.001-0.1 μM
  IFNγ in CD4+ T cells: significantly decreased
CD8+ T cells; 0.001-0.1 μM
  IFNγ in CD8+ T cells: significantly decreased
Monocytes [3]
  phagocytosis by monocytes: decreasing; also recorded: significantly decreased
Monocytes [4]
  TNFα in monocytes: significantly decreased

## C=CC(C)(O)CCC=C(C)C (stereo not drawn) [Linalool]
PBMC
  any other immunological functional responses measured in the immune modulation survey: did not have any statistically significant effects
Monocytes [5]; 0.001 μM, LPS 1000 ng/mL, vs vehicle
  IL-1β secretion in monocytes: significantly increased
Monocytes [5]; any other concentration (tested 0.001-10 μM, other than 0.001 μM)
  IL-1β production: did not exhibit any effects

## C/C(=C\CO)CCC[C@H](C)CCC[C@H](C)CCCC(C)C [Phytol A, phytol]
CD4+ T cells [2]; 0.001 μM
  IFNγ in CD4+ T cells: significantly decreased
CD8+ T cells; 0.001 μM
  IFNγ in CD8+ T cells: not statistically significant

## C=CC(C)(O)CC/C=C(\C)CCC=C(C)C (stereo not drawn) [trans-nerolidol, trans nerolidol]
Monocytes [5]; LPS 1000 ng/mL, vs vehicle
  IL-1β in monocytes: enhanced
Monocytes [5]; LPS 1000 ng/mL, vs vehicle, listed as tN
  IL-1β in monocytes: significantly increased
CD4+ T cells [6]
  % CD25+ in CD4+ T cells (activation marker): increased

Reference: patent US20220110910A1, “CANNABINOID-CONTAINING COMPLEX MIXTURES FOR THE TREATMENT OF CYTOKINE RELEASE SYNDROME WHILE PRESERVING KEY ANTI-VIRAL IMMUNE REACTIONS” (GBS Global BioPharma, Inc., priority 2020, published 2022)
